SMILES strings stand for the structures.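 Five compound concentrations were applied to cells in 96-well plates for 48 hours; endpoints were derived by simple linear interpolation of the resulting dose-response curve. Abbreviation: GI50, concentration required for 50% inhibition of growth.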 Activity calls are given as the source filed them. No stated cut-off is given here; in the data, active = GI50 up to about 1.1 µM and inactive = higher.

Some test systems named below: A549; CCRF-CEM; HOP-62; Hs-578T; K562; KM12; MDA-MB-231; MDA-MB-435; Malme-3M; OVCAR-8; PC-3; SF-268; SK-OV-3; SN12C; SNB-19; SW-620; HL-60.
What all share (assay): DTP human tumour cell line panel, 48 h

As to `COc1ccc2c3c1OC1C(F)C=CC4(O)C(C2)NCCC314` (centres undefined), the GI50 with A549 is 7.23 µM (inactive); in the assay on CCRF-CEM it was 0.348 µM (active); with HOP-62 it was 2.11 µM (inactive); in the assay on Hs-578T, 2.62 µM (inactive); with K562, 0.805 µM (active); in the assay with KM12 it was 3.33 µM (inactive). Moreover, the GI50 with MDA-MB-231 is 3.27 µM (inactive); in the assay with MDA-MB-435, 1.52 µM (inactive); with Malme-3M it was 1.97 µM (inactive); with OVCAR-8, 1.94 µM (inactive); with PC-3 it was 2.07 µM (inactive); in the assay on SF-268, 2.59 µM (inactive). In addition, the GI50 in the assay on SK-OV-3 was 2.92 µM (inactive); in the assay with SN12C, 1.98 µM (inactive); in the assay with SNB-19, 1.81 µM (inactive); in the assay on SW-620, 1.37 µM (inactive).

Take `OC(c1cc(C(F)(F)F)nc2c(Cl)cc(Cl)cc12)C1CCCCN1` (centres undefined): the GI50 with A549 is 20.5 µM (inactive); with CCRF-CEM, 1.27 µM (inactive); with HL-60, 5.82 µM (inactive); in the assay with HOP-62, 3.77 µM (inactive); in the assay on Hs-578T, > 22.4 µM (inactive); in the assay on K562, 5.22 µM (inactive). The GI50 is 6.3 µM (inactive) with KM12; > 22.1 µM (inactive) in the assay on MDA-MB-231; 5.61 µM (inactive) in the assay with MDA-MB-435; 13.2 µM (inactive) in the assay with OVCAR-8; > 22.5 µM (inactive) in the assay on PC-3; 16.8 µM (inactive) in the assay with SF-268. The GI50 is 12.3 µM (inactive) in the assay on SK-OV-3, > 36.5 µM (inactive) with SNB-19 and 5.89 µM (inactive) in the assay with SW-620.

With `C[C@]12CC[C@@H]3c4ccc(O)cc4CC[C@H]3[C@@H]1C/C(=C\c1ccncc1)C2=O`, the GI50 is 19.1 µM (inactive) with A549; 15.3 µM (inactive) in the assay with CCRF-CEM; 10.6 µM (inactive) in the assay with HL-60; 20.3 µM (inactive) in the assay on HOP-62; 14.2 µM (inactive) in the assay on Hs-578T; 8.61 µM (inactive) in the assay with K562. The GI50 in the assay on KM12 is 13.7 µM (inactive); in the assay with MDA-MB-231 it was 41.4 µM (inactive); with MDA-MB-435 it was 4.46 µM (inactive); with Malme-3M, 14.1 µM (inactive); with OVCAR-8, 18.5 µM (inactive); in the assay on PC-3, 11.6 µM (inactive). Also, the GI50 in the assay on SF-268 was 30.1 µM (inactive); with SK-OV-3, 35.1 µM (inactive); with SNB-19, 38.5 µM (inactive); with SW-620 it was 27.5 µM (inactive).

Turning to `COC(=O)c1cc2c(cc1CC(Cc1ccc3c(c1)CCC3)C(=O)OC)CCC2` (centres undefined), the GI50 in the assay on A549 was 34 µM (inactive); in the assay with CCRF-CEM it was 29.1 µM (inactive); in the assay with HL-60, 8.61 µM (inactive); in the assay with HOP-62, > 100 µM (inactive); with Hs-578T it was 66.2 µM (inactive); in the assay with K562, 34.2 µM (inactive). The GI50 is 46.1 µM (inactive) in the assay on KM12; 70.6 µM (inactive) in the assay on MDA-MB-231; 31 µM (inactive) in the assay on MDA-MB-435; 41.3 µM (inactive) with Malme-3M; > 100 µM (inactive) in the assay with OVCAR-8; 16.6 µM (inactive) in the assay with PC-3. Besides, the GI50 in the assay on SF-268 was 54.6 µM (inactive); with SK-OV-3 it was 60.1 µM (inactive); in the assay on SN12C it was > 100 µM (inactive); in the assay with SNB-19, > 100 µM (inactive); in the assay on SW-620, 74 µM (inactive).

In the case of `O=C(O)c1cnc2c(ccc3ncc(C(=O)O)c(O)c32)c1O`, the GI50 in the assay on A549, in the assay on HL-60, in the assay on HOP-62, with Hs-578T, with K562 and with KM12 was > 100 µM (inactive) throughout. In addition, the GI50 with MDA-MB-231, in the assay on MDA-MB-435, in the assay on Malme-3M, in the assay with OVCAR-8, in the assay with PC-3 and in the assay with SF-268 was > 100 µM (inactive) each time. For the same compound, the GI50 in the assay with SK-OV-3, with SN12C, in the assay with SNB-19 and with SW-620 was > 100 µM (inactive) each time.

With `CC1(O)OC(=O)C2=C1CCC1C2CCC2(C)C(O)CCC12` (centres undefined), the GI50 with A549, in the assay on CCRF-CEM, in the assay with HL-60, in the assay with HOP-62, in the assay with Hs-578T and in the assay on K562 was > 100 µM (inactive) throughout. Further, the GI50 in the assay with KM12, in the assay with MDA-MB-231, with MDA-MB-435, in the assay on Malme-3M, in the assay with OVCAR-8 and in the assay with SF-268 was > 100 µM (inactive) in each case. The GI50 with SN12C, in the assay with SNB-19 and in the assay on SW-620 was > 100 µM (inactive) throughout.

As to `O=C(O)C1(C(O)c2ccccc2)SCCCS1` (centres undefined), the GI50 with A549, with CCRF-CEM, in the assay on HL-60, in the assay with HOP-62, in the assay with Hs-578T and in the assay with K562 was > 10 µM (inactive) in each case. The GI50 in the assay with KM12, with MDA-MB-231, in the assay on MDA-MB-435, in the assay on Malme-3M, in the assay with OVCAR-8 and in the assay with PC-3 was > 10 µM (inactive) throughout. Also, the GI50 in the assay with SF-268, in the assay on SK-OV-3, with SN12C, in the assay with SNB-19 and in the assay with SW-620 was > 10 µM (inactive) throughout.

With `O=C1CC(=O)c2c(O)cc(O)c(c2O)-c2c(ccc(O)c2O)C2=CC(=O)c3c(O)cc(O)c(c3O2)-c2c1ccc(O)c2O.O=C1CC2(O)Oc3c1c(O)cc(O)c3-c1c(ccc(O)c1O)-c1cc(=O)c3c(O)cc(O)c(c3o1)-c1c2ccc(O)c1O`, the GI50 in the assay on A549, with CCRF-CEM, with HL-60, with HOP-62, in the assay on Hs-578T and with K562 was > 50 µM (inactive) in each case. Further, the GI50 with MDA-MB-231, in the assay with MDA-MB-435, with Malme-3M, with OVCAR-8, with PC-3 and in the assay on SF-268 was > 50 µM (inactive) throughout. Besides, the GI50 in the assay on SK-OV-3, in the assay on SN12C, in the assay with SNB-19 and with SW-620 was > 50 µM (inactive) in each case.

Turning to `C/C(=N\Nc1nc2ccccc2[nH]1)c1cccc[n+]1[O-]`, the GI50 is > 100 µM (inactive) in the assay with A549; > 100 µM (inactive) with CCRF-CEM; > 100 µM (inactive) in the assay with HOP-62; > 100 µM (inactive) in the assay with Hs-578T; > 100 µM (inactive) in the assay with K562; 44.7 µM (inactive) with KM12. The GI50 in the assay on MDA-MB-231 is > 100 µM (inactive); in the assay on MDA-MB-435, > 100 µM (inactive); in the assay with Malme-3M, 52.7 µM (inactive); in the assay on OVCAR-8 it was > 100 µM (inactive); in the assay on PC-3, > 100 µM (inactive); in the assay on SF-268 it was > 100 µM (inactive). The GI50 in the assay with SK-OV-3, in the assay with SN12C, in the assay with SNB-19 and with SW-620 was > 100 µM (inactive) throughout.

With `c1ccc(C(NC2=NCCO2)C2CC2)cc1` (centres undefined), the GI50 is > 100 µM (inactive) with A549; > 100 µM (inactive) in the assay with HOP-62; > 100 µM (inactive) with Hs-578T; > 100 µM (inactive) in the assay on KM12; > 100 µM (inactive) in the assay with MDA-MB-231; 75.9 µM (inactive) in the assay with MDA-MB-435. The GI50 with Malme-3M, in the assay on OVCAR-8, with PC-3, in the assay on SF-268, in the assay with SK-OV-3 and in the assay with SN12C was > 100 µM (inactive) throughout. In addition, the GI50 with SNB-19 is 88.9 µM (inactive); in the assay on SW-620, > 100 µM (inactive).

On to `CC(=O)O[C@@H]1[C@H]2[C@@H](OC(=O)c3ccccc3)[C@@H](C)C[C@]2(O)[C@H](OC(C)=O)[C@@]2(C)[C@@H]3C[C@@](C)(OC(C)=O)C[C@@H](OC(C)=O)[C@@]3(OC(C)=O)C[C@@]12C`, for which the GI50 in the assay with CCRF-CEM, in the assay with HL-60, with HOP-62, with Hs-578T, with K562 and in the assay with KM12 was > 10 µM (inactive) each time. Also, the GI50 with MDA-MB-231, in the assay on MDA-MB-435, in the assay with OVCAR-8, with PC-3, with SF-268 and in the assay on SK-OV-3 was > 10 µM (inactive) in each case. The GI50 in the assay with SN12C, with SNB-19 and in the assay with SW-620 was > 10 µM (inactive) in each case.

For the compound `Clc1ccc(C(SCc2ccccc2)SCc2ccccc2)cc1`, the GI50 in the assay with A549, with CCRF-CEM, in the assay with HL-60, in the assay on HOP-62, in the assay on Hs-578T and in the assay with K562 was > 10 µM (inactive) in each case. Moreover, the GI50 with KM12, in the assay with MDA-MB-231, with Malme-3M, with OVCAR-8, with PC-3 and in the assay on SF-268 was > 10 µM (inactive) in each case. The GI50 in the assay with SK-OV-3, with SN12C, with SNB-19 and in the assay on SW-620 was > 10 µM (inactive) in each case.

The values above are taken from ChEMBL document CHEMBL1201862, “PubChem BioAssay data set” (2004).
